Measured values: ChEMBL document CHEMBL5032511, “Improving Druggability of Novel Diarylpyrimidine NNRTIs by a Fragment-Based Replacement Strategy: From Biphenyl-DAPYs to Heteroaromatic-Biphenyl-DAPYs” (J Med Chem, 2021)

How the values were obtained:
[1] = Acute toxicity in fasted mouse assessed as pathological changes in brain at 2 g/Kg, IG upto 2 weeks after 14 days by H and E staining based analysis; format: tissue-based; details: in vivo, po, 2000 mg/kg, 336 h
[2] = AUC (infinity) in Sprague-Dawley rat at 1 mg/kg, iv by LCMS analysis; format: ADME, organism-based; set-up: route intravenous, time infinity, dose 1 mg/kg; details: in vivo
[3] = Tmax in Sprague-Dawley rat at 5 mg/kg, po by LCMS analysis; format: ADME, organism-based; details: in vivo
[4] = Stability in mouse liver microsome assessed as half life at 1 uM in presence of NADPH by LC/MS/MS analysis; format: ADME; details: liver microsomes
[5] = Half life in Sprague-Dawley rat at 5 mg/kg, po by LCMS analysis; format: ADME, organism-based; details: in vivo
[6] = AUC (infinity) in Sprague-Dawley rat at 5 mg/kg, po by LCMS analysis; format: ADME, organism-based; set-up: route oral, time infinity, dose 5 mg/kg; details: in vivo
[7] = Clearance in Sprague-Dawley rat at 1 mg/kg, iv; format: ADME, organism-based; details: in vivo
[8] = Acute toxicity in fasted mouse assessed as pathological changes in liver at 2 g/Kg, IG upto 2 weeks after 14 days by H and E staining based analysis; format: tissue-based; details: in vivo, po, 2000 mg/kg, 336 h
[9] = Cmax in Sprague-Dawley rat at 1 mg/kg, iv by LCMS analysis; format: ADME, organism-based; set-up: route intravenous, dose 1 mg/kg; details: in vivo
[10] = Intrinsic clearance in mouse liver microsome at 1 uM in presence of NADPH by LC/MS/MS analysis; format: ADME; details: liver microsomes, read-out: CLH
[11] = AUC (all) in Sprague-Dawley rat at 5 mg/kg, po by LCMS analysis; format: ADME, organism-based; set-up: dose 5 mg/kg; details: in vivo
[12] = Acute toxicity in fasted mouse assessed as mouse death at 2 g/Kg, IG; details: in vivo, po, 2000 mg/kg
[13] = Acute toxicity in fasted mouse assessed as behavioral changes at 2 g/Kg, IG upto 2 weeks; details: in vivo, po, 2000 mg/kg, 336 h
in vitro [14] = details: human, liver microsomes
[15] = AUC (all) in Sprague-Dawley rat at 1 mg/kg, iv by LCMS analysis; format: ADME, organism-based; set-up: dose 1 mg/kg; details: in vivo
[16] = Stability in rat liver microsome assessed as binding constant at 1 uM in presence of NADPH by LC/MS/MS analysis; details: microsomes
[17] = MRT (infinity) in Sprague-Dawley rat at 5 mg/kg, po by LCMS analysis; format: ADME, organism-based; details: in vivo
[18] = Oral bioavailability in Sprague-Dawley rat at 5 mg/kg by LCMS analysis; format: ADME, organism-based; details: in vivo
[19] = Stability in human liver microsome assessed as binding constant at 1 uM in presence of NADPH by LC/MS/MS analysis; details: microsomes
[20] = Acute toxicity in fasted mouse assessed as pathological changes in lung at 2 g/Kg, IG upto 2 weeks after 14 days by H and E staining based analysis; format: tissue-based; details: in vivo, po, 2000 mg/kg, 336 h
[21] = MRT (infinity) in Sprague-Dawley rat at 1 mg/kg, iv by LCMS analysis; format: ADME, organism-based; details: in vivo
[22] = Acute toxicity in fasted mouse assessed as pathological changes in spleen at 2 g/Kg, IG upto 2 weeks after 14 days by H and E staining based analysis; format: tissue-based; details: in vivo, po, 2000 mg/kg, 336 h
in vitro [23] = details: human, liver microsomes; remark: listed apart in the source
[24] = Stability in mouse liver microsome assessed as binding constant at 1 uM in presence of NADPH by LC/MS/MS analysis; format: ADME; details: microsomes
in vitro [25] = details: rat, liver microsomes
[26] = Acute toxicity in fasted mouse assessed as pathological changes in kidney at 2 g/Kg, IG upto 2 weeks after 14 days by H and E staining based analysis; format: tissue-based; details: in vivo, po, 2000 mg/kg, 336 h
in vitro [27] = details: rat, liver microsomes; remark: listed apart in the source
[28] = Acute toxicity in fasted mouse assessed as weight loss at 2 g/Kg, IG upto 2 weeks; details: in vivo, po, 2000 mg/kg, 336 h
[29] = Acute toxicity in fasted mouse assessed as pathological changes in heart at 2 g/Kg, IG upto 2 weeks after 14 days by H and E staining based analysis; format: tissue-based; details: in vivo, po, 2000 mg/kg, 336 h
[30] = Half life in Sprague-Dawley rat at 1 mg/kg, iv by LCMS analysis; format: ADME, organism-based; details: in vivo

Cl.N#Cc1ccc(Nc2nccc(Nc3c(F)cc(-c4ccncc4)cc3F)n2)cc1
Activity [1]: Non-Toxic | AUC(0-inf) [2]: 531 ng·h/mL | Tmax [3]: 34.8 min | half-life at 1 µM [4]: 27 min | half-life [5]: 50.4 min | AUC(0-inf) [6]: 3350 ng·h/mL | clearance [7]: 32 mL/min/kg | Activity [8]: Non-Toxic | Cmax [9]: 1370 ng/mL | microsomal CLint at 1 µM [10]: 52 µL/min/mg | AUC [11]: 3340 ng·h/mL | Activity [12]: Non-Toxic | Activity [13]: Non-Toxic | microsomal CLint at 1 µM (in vitro [14]): 28 µL/min/mg | AUC [15]: 526 ng·h/mL | K [16]: 0.0215 min⁻¹ | MRT inf [17]: 101 min | bioavailability [18]: 126% | K [19]: 0.0142 min⁻¹ | Activity [20]: Non-Toxic | MRT inf [21]: 50.4 min | Activity [22]: Non-Toxic | half-life at 1 µM (in vitro [23]): 49 min | K [24]: 0.0259 min⁻¹ | half-life at 1 µM (in vitro [25]): 32 min | Activity [26]: Non-Toxic | microsomal CLint at 1 µM (in vitro [27]): 43 µL/min/mg | Activity [28]: Non-Toxic | Activity [29]: Non-Toxic | half-life [30]: 45.6 min
